Experimental data reported in patent US12383505B2, “Nanoparticle for the remodeling of cancer-associated fibroblasts” (University of South Carolina, priority 2021, dated 2025).

Legend:
[1] = test system: NIH3T3 cells; experiment: DOX induced CAF differentiation, immunocytochemistry of α-SMA and fibronectin; format: cell-based, mouse; settings: 0.05 μM of free DOX for 48 hours
Excerpt: (§1) Anthracycline-containing regimens are predominantly used in neoadjuvant chemotherapy for breast cancer. See, J. Wang, T. A. Buchholz, L. P. Middleton, D. C. Allred, S. L. Tucker, H. M. Kuerer, F. J. Esteva, G. N. Hortobagyi, A. A. Sahin, Cancer 2002, 94, 3107; M. S. van Ramshorst, A. van der Voort, E. D. van Werkhoven, I. A. Mandjes, I. Kemper, V. O. Dezentjé, I. M. Oving, A. H. Honkoop, L. W. Tick, A. J. van de Wouw, The Lancet Oncology 2018. However, only a little benefit was achieved from this neoadjuvant chemotherapy in the majority of patients. […] Chen, Y.-A. Lai, Y.-C. Lin, J.-W. Ma, L.-F. Huang, N.-S. Yang, C.-T. Ho, S.-C. Kuo, T.-D. Way, Journal Of Agricultural And Food Chemistry 2013, 61, 11817; N. Chintalaramulu, R. Vadivelu, N. Nguyen, I. Cock, Inflammopharmacology 2020, especially at lower doses. To investigate the relationship between DOX and the differentiation and transdifferentiation of CAF and the potential effect of T-CeNP in inhibiting DOX-induced metastasis, T-CeNP was added to NIH3T3 and 4T1 cells either before or after receiving DOX treatment. The expression of the CAF related proteins, including α-SMA and fibronectin, and metastasis-associated E-cadherin were evaluated by immunocytochemistry. […] The quantitative comparison of their corresponding fluorescence intensities further verified these trends. […]

[2] = test system: 4T1 cells; experiment: DOX induced EMT, immunocytochemistry of E-cadherin; format: cell-based, murine; settings: 0.05 μM of free DOX for 48 hours
Excerpt: as §1

[3] = test system: 4T1-luc orthotopic tumor; experiment: Neoadjuvant chemotherapy in orthotopic breast cancer model: primary tumor; format: in vivo, BALB/c mice; settings: i.v., CeNP 1 mg/kg, DOX 3 mg/kg, every 3 days for 4 times
Experimental: (§2) The 4T1 orthotopic model was established following our previous method with a minor modification. All animal experiments were conducted in accordance with NIH regulations and approved by the Institutional Animal Care and Use Committee of the University of South Carolina. 4T1/Luc2 cells (2×10^5 in 20 μl PBS) were injected into the right 4th mammary fat pad of 6-8 weeks female BALB/c mice, and the primary tumor growth was monitored through bioluminescence signal using IVIS imaging system. Two weeks post tumor cell inoculation, the mice were randomly divided into 6 groups (n=10), including control, T-CeNP, T-DOX, free DOX, T-CeNP+T-DOX, and T-CeNP+ Free DOX, and received corresponding neoadjuvant chemotherapy, surgery, and postoperative chemotherapy. In brief, for neoadjuvant chemotherapy, the drugs were intravenously injected at a CeNP dosage of 1 mg/kg and DOX dosage of 3 mg/kg every 3 days for 4 times. Specifically, for the groups of
(§3) T-CeNP+T-DOX and T-CeNP+ free DOX, T-CeNP was administrated to mice 2 days prior to T-DOX or Free DOX treatment. Two days after the last dose, all mice underwent complete
surgical removal of the tumors following our previous method. Two days after the surgery, the mice received another 3 times administration of T-CeNP, T-DOX, free DOX, and their combination as post-surgical chemotherapy. […]

[4] = test system: 4T1-luc lung and liver metastasis; experiment: Post-surgery lung and liver metastasis in orthotopic breast cancer model; format: in vivo, BALB/c mice
Experimental: as §2, §3
surgical removal of the tumors following our previous method. Two days after the surgery, the mice received another 3 times administration of T-CeNP, T-DOX, free DOX, and their combination as post-surgical chemotherapy. At the end of the study (day 24), the mice were sacrificed, and the lung and liver were harvested for ex vivo bioluminescence imaging to examine the metastasis.
The harvested tumors and major organs were fixed with 4% paraformaldehyde and processed by paraffin sectioning and frozen sectioning. Tissue sections (heart, liver, spleen, and kidney) and lung sections were hematoxylin and eosin (H&E) stained for acute toxicity evaluation and lung metastasis evaluation. […] All the immunofluorescence images were recorded with a fluorescence microscope (Evos™ FL, ThermoFisher Scientific, MA, USA).

[5] = ex vivo bioluminescence imaging, day 24

For `COc1cccc2c1C(=O)c1c(O)c3c(c(O)c1C2=O)C[C@@](O)(C(=O)CO)C[C@@H]3O[C@H]1C[C@H](N)[C@H](O)[C@H](C)O1` [free DOX, doxorubicin], the “level of α-SMA and fibronectin” value [1] was “boosted level of α-SMA and fibronectin”, the E-cadherin expression [2] was “declined E-cadherin expression” and the primary tumor size [3] was “only slightly reduced the size of the primary tumor”. The liver metastasis [4, 5] was “inductive effect”, the lung metastasis occurrence [4, 5] was “developed lung metastasis” and the lung metastasis nodules ([4]; nodules on the surface of lung) was “induced more metastasis nods in the lung”.
